The subject of data set [1] is MCF-7 cells. The data set can be described thus: MCF-7 cell response to a printed drug array, live/dead assay. Format: cell-based. To be noted: drugs spotted at 0, 0.1, 0.5, 0.7 and 1 mM; 2 hours incubation. The method, then:
MCF7 cells response to 4 different drugs (Doxorubicin, Docetaxel, Pacletoxel, Methotrexate) at 4 different concentrations (0.1-1 mM). The drugs were printed on the slide and aligned into drug chamber inside the device. Live/dead assay was performed by double staining dead cells (Red) and live cells (Green).
(§1) The evaluation of anticancer drug effect on cells vitality was conducted in two steps. First, Docetaxel was used, which is one of the first-line chemotherapies used for metastatic breast cancer. Docetaxel, at different concentrations (1 uM, 10 uM and 100 uM), was flown into the microfluidics device for 5 minutes, following the cell accommodation period. Then the cells, were incubated with the drug for 2 hours. Cell feeding, by diffusion, commenced until the experiment was finished. Live/dead assay was applied up to 48 hours following drug administration. After the evaluation of cells response to one drug-Docetaxel the effect was tested of an array of drugs on the cells. The drugs were printed on a glass substrate and their spotted array was aligned to the drug chamber in the microfluidic device.
(§2) Custom assays for cells vitality evaluation were applied. Living cells were stained with Calcein-AM (50 ng/ul in DMEM medium) (Biotest, Israel) which colors the cytoplasm. Dead cells were stained with Propidium Iodide (PI) (Sigma, Israel) (15 ng/ul in DMEM medium), coloring the nuclear. All cells nuclear (live and dead) were stained by Hoechst 33342 stain (Bis-Benzimide H3342 trihydro-chloride, Sigma, Israel) (10 ng/μl in DMEM medium). A solution of all three dyes was prepared and flowed within the chip. The cells were washed with the solution for 20 min at a pressure of 2 psi. Following dyes application, the controlled valves were closed and the device was incubated for 30 min at 37° C. 5% CO2 to allow cells staining. Next, the valves were opened and the device was washed by phenol-free DMEM medium for 15 min, to remove colures remains.
The drugs, Doxorubicin (Doxorubicin hydrochloride, Tocirs, USA), Docetaxel, Paclitaxel Methotrexate (drugs were supplied with the courtesy of Dr. Levanon, The institute of Oncology, Chaim Sheba Medical Center, Israel), were spotted on a microscope slide at 5 different concentrations (0, 0.1, 0.5, 0.7 and 1 mM) and then covered with the microfluidic device, encompassing the thy drugs inside the drug chamber. Cells were seeded on the device and cultured for 2 hours. Then the valve blocking the drug chamber was opened and the drugs were flooded and allowed to diffuse out and incubated with the cells for 2 hours. A different response was observed dynamics to the different drugs, expressed by different mortality rates.

The subject of data set [2] is MCF7 cells. The data set can be described thus: Live/dead staining assay in microfluidic device after Docetaxel exposure, MCF7 cells. The format is cell-based. More on the design: dose or concentration left out as unconfirmed. Conditions: Docetaxel for 2 hours, 48 hours after seeding; live/dead assay at T0, 5, 24, 48 hours; n=47; vs untreated control. The method, then:
The cells were then dissociated from the culture dish at 60-70% confluence with 0.25% trypsin in PBS, resuspended in DMEM containing 10% FBS and introduced into the microfluidic device. […] MCF7/Dx cell line was grown in the presence of 10 ^M doxorubicin and cultured for 4 weeks in drug-free medium prior to use.
The evaluation of anticancer drug effect on cells vitality was conducted in two steps. First, Docetaxel was used, which is one of the first-line chemotherapies used for metastatic breast cancer. […] Then the cells, were incubated with the drug for 2 hours. Cell feeding, by diffusion, commenced until the experiment was finished. Live/dead assay was applied up to 48 hours following drug administration. […]
(§3) Statistical analysis was carried up using Microsoft Excel 2016 Data Analysis package and RStudio (RStudio Team (2015). RStudio: Integrated Development for R. RStudio, Inc., Boston, Mass.) Images were processed with NIS Elements Analysis software (ver. 40.20.01 Nikon, USA). For all experiments, variables are expressed as traditional boxplots, presenting median, maximum, minimum and Interquartiie range (IQR). […] In all cases, significance was defined as p<0.05, one way analysis of variance was evaluated using Anova, while multiple comparison was evaluated using Tukey's range test (post-hoc Anova analysis). […]

Data set [3] has as its system cells in microfluidic cell chamber. The data set can be described thus: Dynamics of cell death following Docetaxel treatment (FIG. 6), PI staining in cell chambers. Conditions: Docetaxel 10 uM, 2 hours exposure, 50 drug chambers vs 50 control chambers. The format is cell-based. The method, then: FIG. 6A: Live images of a representative cell chamber before (T0) and after (up to 20 hours) exposure to Docetaxel (10 uM). Dead cells were stained with Red (PI).
FIG. 6B: Box plot analysis of the mortality rate (%) of cells following 2 hours of exposure to Docetaxel (10 uM)—T0. Nearly 100 cells chambers were analyzed, 50 following drug exposure and 50 control—no drug exposure. […] Two tail paired T-test analysis were conducted.
Custom assays for cells vitality evaluation were applied. Living cells were stained with Calcein-AM (50 ng/ul in DMEM medium) (Biotest, Israel) which colors the cytoplasm. Dead cells were stained with Propidium Iodide (PI) (Sigma, Israel) (15 ng/ul in DMEM medium), coloring the nuclear. […]
Statistical analysis was carried up using Microsoft Excel 2016 Data Analysis package and RStudio (RStudio Team (2015). RStudio: Integrated Development for R. RStudio, Inc., Boston, Mass.) Images were processed with NIS Elements Analysis software (ver. 40.20.01 Nikon, USA). For all experiments, variables are expressed as traditional boxplots, presenting median, maximum, minimum and Interquartiie range (IQR). […] In all cases, significance was defined as p<0.05, one way analysis of variance was evaluated using Anova, while multiple comparison was evaluated using Tukey's range test (post-hoc Anova analysis).

The test system of data set [4] is dispersed cells and cell clusters. Description: cells. Format: cell-based. The method, then:
Cells were exposed twice to Docetaxel once at a concentration of 1 μM and 24 hours later re-exposed to 10 μM Docetaxel for a period of 2 hrs. […] P value was determined using two-tail T-test (n=43).
FIG. 9A: Cells were exposed twice to Docetaxel once at a concentration of 1 μM and 48 hours later a second exposure to 10 μM. Images were taken 24 hours after the second drug exposure T24 (which is 120 hours post seeding).
Cells were exposed to 10 μM Docetaxel for 2 hours. The dynamic of cell death was detected using PI staining. […] Monitoring proceeded up to 28 hours.
as §2, with “Next, the valves were opened and the device was washed by phenol-free DMEM medium for 15 min, to remove colures remains.” left out

Data set [5] relates to 293T cells. Description: Live/dead staining assay in microfluidic device after Docetaxel exposure, 293T cells. More on the design: dose or concentration left out as unconfirmed. Format: cell-based. Conditions: Docetaxel for 2 hours, 48 hours after seeding; live/dead assay at T0, 5, 24, 48 hours. The method, then:
as §1, with “Docetaxel, at different concentrations (1 uM, 10 uM and 100 uM), was flown into the microfluidics device for 5 minutes, following the cell accommodation period.” left out
Custom assays for cells vitality evaluation were applied. […]
as §3

Data set [6] concerns pleural effusion samples from Non-small cell lung carcinoma patients. The data set can be described thus: CSRA of patient pleural effusion samples, Propidium iodide cell viability. The format is cell-based, human. Conditions: 15 μM, 24-hour exposure; samples from 8 patients. The method, then:
The drug response of pleural effusion samples taken from 8 Non-small cell lung carcinoma patients was tested in a preliminary experiment. […] The genomic analysis could not predict however development of resistance. For each of the samples, the cells were first uploaded into the chip for a 24-hour acclimation period after which the cells were exposed different drugs. The 24 hours response to two […], Alectinib and Crizotinib (15 μM) is shown herein. Cell viability was measured using Propidium iodide, which dyes the nuclei of dead cells (magenta). It was known that the biopsies originated from patients that were treated with Alectinib and Crizotinib, however their response to each treatment was not known nor the order in which the drugs were administered, in order to avoid any sort of confirmation bias when collecting and analyzing the data. The moment when the pleural effusions were collected during the treatments was neither known. Crizotinib, like Alectinib is an ALK inhibitor and works by operating as a competitive inhibitor to the ATP binding site of the tyrosine kinase enzyme that the ALK gene codes for and in doing so prevents its carcinogenic activity. […] At the end of the 24-hour exposure period, the data from the experiments was analyzed and calculated to determine the survival and or mortality rate of the cells.

The test system of data set [7] is Non-small cell lung carcinoma patients. Conditions: patients first treated with Alectinib, then replaced with Crizotinib; cited from earlier work.
Data set [8] has as its system MCF-7 cells. The data set can be described thus: Doxorubicin treatment specificity in microfluidic device, MCF-7 cells. To be noted: drug sensitive MCF7 cells; 24 hours of 10 μM doxorubicin.
For data set [9], the system named is MCF-7/dx (Doxorubicin resistant cells). Description: Doxorubicin treatment specificity in microfluidic device, Doxorubicin resistant MCF-7/dx cells. To be noted: drug resistant MCF7/Dx cells; 24 hours of 10 μM doxorubicin.
For data set [10] the following is noted: in vivo; cited from earlier work.

“Also recorded” adds a separate entry of the source. Like-named read-outs stand apart in the source and are kept apart here.

By mortality is commonly meant the percentage killed.

Regarding `CC(=O)O[C@H]1C(=O)[C@@]2(C)[C@H]([C@H](OC(=O)c3ccccc3)[C@]3(O)C[C@H](OC(=O)[C@H](O)[C@@H](NC(=O)c4ccccc4)c4ccccc4)C(C)=C1C3(C)C)[C@]1(OC(C)=O)CO[C@@H]1C[C@@H]2O` [Paclitaxel], in data set [1], the “dose dependence of sensitivity of MCF-7 cells” value (“dose dependence” below) was “dose dependence sensitivity was observed” and the “mortality rate of MCF-7 cells versus drug dose” value was “mortality rate increased starting from the lower dose of drug (0.1 mM) (p<0.05)”.
On to `CC(=O)O[C@@]12CO[C@@H]1C[C@H](O)[C@@]1(C)C(=O)[C@H](O)C3=C(C)[C@@H](OC(=O)[C@H](O)[C@@H](NC(=O)OC(C)(C)C)c4ccccc4)C[C@@](O)([C@@H](OC(=O)c4ccccc4)[C@H]21)C3(C)C` [Docetaxel], for which the “mortality rate of MCF7 cells post drug exposure” value in data set [2] is recorded as “significantly increased (p<0.05) within 5 hours post drug exposure with no further increase in mortality rate up to 48 hours”. In data set [1], the “dose dependence” value was “dose dependence sensitivity was observed” and the “mortality rate of MCF-7 cells versus drug dose” value is “mortality rate increased starting from the lower dose of drug (0.1 mM) (p<0.05)”. In addition, the “cells vitality immediately after 2 hrs of drug exposure (T0 drug)” value in data set [3] was “no differences in cells vitality”. Also, the “cells mortality rate twenty hours post cultivation” value in data set [3] (20 hours) is recorded as “following drug exposure a further significant increase was observed (p<0.05)”. Moreover, in data set [4] (read-out: Cluster mortality rate (Mean±S.E)), the mortality at 1 µM is 33 ± 5%. For the same molecule, the mortality at 1 µM in [4] (read-out: mortality rate of the dispersed cells population (Mean±S.E)) worked out at 65 ± 6%. In addition, in [5], the “mortality rate of 293T cells post drug exposure” value is reported as “increase in mortality rate after 5 hrs (p<0.05) with no further deterioration”.
Consider `CN(Cc1cnc2nc(N)nc(N)c2n1)c1ccc(C(=O)N[C@@H](CCC(=O)O)C(=O)O)cc1` [Methotrexate], for which, in [1], the “dose dependence” value is given as “dose dependence sensitivity was observed” and the “mortality rate of MCF-7 cells versus drug dose” value was “mortality rate increased starting from the lower dose of drug (0.1 mM) (p<0.05)”.
For the molecule `C[C@@H](Oc1cc(-c2cnn(C3CCNCC3)c2)cnc1N)c1c(Cl)ccc(F)c1Cl` [Crizotinib], in data set [6], the “24 hours drug response of patient samples (resistance / sensitivity)” value is given as “varying sensitivity; also recorded: varying from resistance to medium or high response”. In [7], the “patient response to treatment (patient history)” value was “the response was different between patients”.
Consider `CCc1cc2c(cc1N1CCC(N3CCOCC3)CC1)C(C)(C)c1[nH]c3cc(C#N)ccc3c1C2=O` [Alectinib], for which the “24 hours drug response of patient samples (resistance / sensitivity)” value in data set [6] is on record as “All samples were resistant; also recorded: all the patients were resistant”. Further, the “patient response to treatment (patient history)” value in [7] was “developed resistance”.
Regarding `COc1cccc2c1C(=O)c1c(O)c3c(c(O)c1C2=O)C[C@@](O)(C(=O)CO)C[C@@H]3O[C@H]1C[C@H](N)[C@H](O)[C@H](C)O1` [Doxorubicin], the “cells showing morphological features of apoptotic/necrotic processes” value in data set [8] is “about 98%”. For the same molecule, in data set [1], the “dose dependence” value is recorded as “dose dependence sensitivity was observed” and the “mortality rate of MCF-7 cells versus drug dose” value is “mortality rate increased starting from the lower dose of drug (0.1 mM) (p<0.05)”. Also, the “morphological features of apoptotic/necrotic processes” value in data set [9] is “almost absent”.
Regarding “Infliximab: purified, recombinant DNA-derived chimeric human-mouse IgG monoclonal antibody against TNF-α”, in data set [10], the serum half-life is 228 h and the “time detectable in serum after infusion treatment” value is 8 weeks.

The values above are taken from US20210354140A1, “MICROFLUIDIC DEVICE AND USES THEREOF” (Bar Ilan University, priority 2020, published 2021).
